How the values were obtained:
Zucker fatty rats = assay: OGTT in Zucker fatty rats, SEQID-00105 vs alogliptin vs combination (glucose 2 g/kg); type: in vivo, rat
Procedure: In another experiment, an OGTT was performed in 24, fasted, male Zucker fatty rats with indwelling jugular vein catheters (JVC) to assess the acute effects of nutritive protein dosing on glycemic control as well as insulin and GLP-1 levels. The capacity of SEQID-00105 to improve glucose control was tested by comparing the blood glucose excursion of SEQID-00105 to alogliptin to SEQID-00105+alogliptin to vehicle in the context of an oral glucose tolerance test. All rodents were approximately 10-11 weeks old, weighed average of approximately 430 g and acclimated for 4-5 days prior to testing. Prior to treatment, all rats were fasted overnight for fourteen hours. […] N=6 rats per treatment group. The error bars shown are the standard errors of the mean. Each group was compared post hoc on GraphPad Prism 6, two-way ANOVA, Dunnett's multiple comparisons test first comparing within each group to the fasting glucose concentration, followed by a comparison of each time point to vehicle. […] The integrated area under curve (AUC) was calculated on Microsoft Excel using the Linear-Log Trapezoidal Method and two-way ANOVA and Dunnett's multiple comparisons tests was conducted on GraphPad Prism 6.03.

healthy subjects = conditions: oral supplementation vs. control; cited from earlier work
burn injury = conditions: 0.35 g/kg, cited from earlier work
5-HT production = conditions: oral intake of free Tryptophan; cited from earlier work
[1] = system: mTORC1 (phosphorylation of ribosomal protein S6, rps6); assay: AlphaScreen SureFire Ribosomal Protein S6 assay in primary rat skeletal muscle cells; type: cell-based
Excerpt: Primary Rat Skeletal Muscle Cell (RSKMC) culture medium was purchased from Cell Applications (Catalog number: R150-500, San Diego, CA). Starvation medium DMEM/F12 was bought from Sigma (Catalog number: D9785, St. Louis, MO). […] Fetal bovine serum (FBS) and other growth factors were obtained from Cell Applications (Catalog number: R151-GS, San Diego, CA). Tissue culture flasks and clear bottom 96-well tissue culture plates were purchased from Corning Incorporated (Catalog number: 430641 and 353072, respectively, Corning, NY). Trypsin/EDTA was obtained from Life Technology (Catalog number: 25200, Grand Island, NY). DPBS and HBSS were also purchased from Life Technologies (Catalog number: 14190, 14175, respectively). AlphaScreen® SureFire® Ribosomal Protein S6 Assay Kits was obtained from Perkin Elmer (Catalog number: TGRS6P2S10K).
Primary Rat Skeletal Muscle Cell (RSKMC) culture. RSKMC were isolated using protocol described herein and cryopreserved in liquid nitrogen. The cells were also maintained in RSKMC medium (Cell Applications) in T75 tissue flask in a 37° C., 5% CO2 tissue culture incubator (Model 3110, Thermo Fisher Scientific). The cells were split every three day when they reached ˜90% confluency. RSKMC cells were cultured in RSKMC medium in T75 tissue flask to 100% confluency. The culture medium was aspirated from the culture flask and rinsed once with 10 ml of DPBS, and then 1.5 ml of 0.25% trypsin/EDTA was added to the cells. After the cells were detached from the flask, 10 ml of culture medium were added. The medium was pipetted up and down with a 10 ml pipet to detach the cells from the flask. The cells were then seeded into clear bottom 96-well tissue culture plates at a density of 50,000 cells per well. Following overnight culture in a 37° C., 5% CO2 incubator, the cells were starved over a period of 4 hours with starvation DME/F12 medium without FBS and leucine in a 37° C., 5% CO2 tissue culture incubator, then starved for another hour incubation with Hank's Buffered Salt Solution (HBSS). […]

[2] = Intact half-life during simulated gastric fluid (SGF) digestion; conditions: SGF pH 1.5, pepsin:polypeptide 1:20 w/w, 37° C.; produced in E. coli unless otherwise noted
Procedure: Nutritive polypeptide half-life during simulated digestion. One metric for quantifying the breakdown of polypeptides from an intact form to smaller peptides is the intact half-life. In this experiment the nutritive polypeptide was exposed to a series of proteases that are active in the stomach (pepsin) and intestine (trypsin and chymotrypsin), and the presence of intact protein was measured over time. Specifically, the nutritive polypeptide was first treated at a concentration of 2 g/L with simulated gastric fluid (SGF) (0.03 M NaCl, titrated with HCl to pH 1.5 with a final pepsin: polypeptide ratio of 1:20 w/w) at 37° C. Time points were sampled from the reaction and quenched by addition of 0.2 M Na2CO3. […] Time points were sampled from the reaction and quenched by addition of Trypsin/Chymotrypsin Inhibitor (Sigma) solution until 240 min.
Time point samples were analyzed for intact protein by chip electrophoresis, polyacrylamide gel electrophoresis, or western blot. For chip electrophoresis (Labchip GX II), samples were analyzed using a HT Low MW Protein Express LabChip® Kit (following the manufacturer's protocol). A protein ladder was loaded every 12 samples for molecular weight determination (kDa) and quantification. For polyacrylamide gel electrophoresis, samples (1 μg) were separated on a NuPAGE® Novex® Bis-Tris Precast gel (Life Technologies) according to the manufacturer's protocol. The gel was stained using SimplyBlue™ SafeStain (Invitrogen) and imaged using a Chemidoc XRS+ (BioRad) or transferred onto nitrocellulose membranes using the iBlot® Dry Blotting System (Life Technologies) and iBlot® Western Detection Kit (Life Technologies) according to the manufacturer's protocol. Proteins were detected by blotting with Anti-His [C-term]-HRP antibody diluted 3:5000 in Blok™-PO Blocking Buffer using the SNAP i.d.® Protein Detection System (Millipore) according to the manufacturer's protocol. Blots were treated with Luminata Classico Western HRP Substrate (Millipore) according to the manufacturer's protocol and imaged using chemiluminescent detection on the Molecular Imager® Gel Doc™ XR+ System (Bio-Rad). Quantification of intact protein was determined by densitometry using ImageLab (BioRad). For all analysis methods the relative concentration of the polypeptide at each time point (if detected) was plotted overtime and fit to an exponential curve to calculate the intact half-life.
Specifically, the t=0 (enzyme-free control) and t=2 min samples from the SGF digest were analyzed for intact protein as described by chip electrophoresis, SDS-PAGE, western blot, and/or LC-MS/MS. Relative quantities of polypeptides at each time point were determined and the percentage of intact protein remaining at t=2 was determined.

[3] = Thermostability, ProteoStat Thermal Shift Stability Kit, temperature of aggregation; type: physicochemical; conditions: pH 7.1; heated from 25° C. to 95° C.
Procedure: Thermostability. The thermostability of proteins in a buffer cocktail of Citric Acid and Dibasic Sodium Phosphate over a pH range of 2.8 to 7.1 (preparation described above in Table E31B) was determined using the ProteoStat® Thermal Shift Stability Kit (Enzo Life Sciences) according to the manufacturer's standard protocol. Briefly, protein solutions (˜10 mg/ml) containing 1× ProteoStat TS Detection Reagent were heated from 25° C. to 95° C. at a rate of 0.5° C. per 30 sec using a real-time PCR (rtPCR) thermocycler (BioRad) equipped with a plate reader (SynergyMx, Biotek) while monitoring the fluorescence with a Texas Red filter.

In the case of `Cn1c(=O)cc(N2CCC[C@@H](N)C2)n(Cc2ccccc2C#N)c1=O` [Alogliptin], the “glucose AUC vs vehicle” value (Zucker fatty rats; 0 to 120 minutes, P=0.0051) is reported as “significantly less than vehicle”, the “glucose AUC vs vehicle” value (Zucker fatty rats; 0 to 240 minutes, P=0.0054) is reported as “significantly less than vehicle” and the “blood glucose vs vehicle” value (Zucker fatty rats; 30 minutes following glucose challenge) is reported as “significantly lower blood glucose than vehicle”. For the same compound, the “blood glucose vs vehicle” value (Zucker fatty rats; 60 minutes following glucose challenge) was “significantly lower than vehicle”.

In the case of `N=C(N)NCCC[C@H](N)C(=O)O` [Arginine], the “increase in collagen deposition at wound sites” value (healthy subjects) is given as 2.4 ×.

In the case of `NC(=O)CC[C@H](N)C(=O)O` [Glutamine], the “decrease in Lactulose/mannitol ratio” value (burn injury; after 3 days, vs 5.5× decrease) is given as 8.8 × and the “reduction in hospital stay” value (burn injury) is given as 6 days.

For `N[C@@H](Cc1c[nH]c2ccccc12)C(=O)O` [Tryptophan], the “increase of 5-HT production” value (5-HT production) is given as 2 fold.

In the case of `CC(C)C[C@H](N)C(=O)O` [leucine], the “phosphorylation of rps6” value ([1]; primary RSkMC, complete amino acid medium and minimal 12 amino acid mixture) is reported as “stimulates phosphorylation of rps6 in primary RSkMC in a dose-dependent manner”, the “phosphorylation of rps6 (relative alphascreen signal)” value ([1]; primary RSkMC, different Leucine concentrations) is reported as “stimulates phorphorylation of rps6 in primary RSkMC in a dose-dependent manner” and the “mTOR RPS6 pathway stimulation” value ([1]; primary cells from Soleus, gastrocnemius and extensor digitorum longus) is reported as “stimulates mTOR RPS6 pathway using isolated primary cells in a dose dependent manner”.

With “SEQID-00143: nutritive polypeptide (LYLEEVSKNLVEINPLKLEVKAKPWFVYTPMHGVGFDIFSTIVKKTLCLVEGK; listed as Saccharomyces cerevisiae)” the “SGF Half-life (t½)” value [2] was 18 s.

In the case of “SEQID-00212: nutritive polypeptide (LEEAKKKLLKDVEVLSQRLEEKALAYDKLEKTKTRLQQELDDLLVDLDHQ; listed as Bos taurus)”, the “SGF Half-life (t½)” value [2] is reported as 18 s.

For “SEQID-00215: nutritive polypeptide (KKLLKDVEVLSQRLEEKALAYDKLEKTKTRLQQELDDLLVDLDHQRQIVSNLEKK; listed as Bos taurus)”, the “SGF Half-life (t½)” value [2] was 120 s.

For “SEQID-00218: nutritive polypeptide (GTIENLEEAKKKLLKDVEVLSQRLEEKALAYDKLEKTKTRLQQELDDLLVDLDHQ; listed as Bos taurus)”, the “SGF Half-life (t½)” value [2] was 360 s.

In the case of “SEQID-00237: nutritive polypeptide (EEDKVNTLTKAKTKLEQQVDDLEGSLEQEKKLRMDLERAKRKLEGDLKLA; listed as Bos taurus)”, the “Tagg (pH 7.1)” value [3] is reported as 45 and the “SGF Half-life (t½)” value [2] is reported as 36 s.
